Assay results reported in ChEMBL document CHEMBL1143727, “Terpenoids from the medicinal plant Maytenus ilicifolia” (J Nat Prod, 2007).
Active and inactive are the calls of the source. No cut-off for these calls is given here.

tested on: Saccharomyces cerevisiae; test: Antimicrobial activity against DNA damage check point deffective Saccharomyces cerevisiae mutants; format: functional, organism-based

Row | SMILES | Activity
1 | COc1cc(C(=O)Oc2c(O)cc3c(c2C)C(O)CC2[C@@]3(C)CC[C@@]3(C)C4C[C@@H](C)C(=O)C[C@]4(C)CC[C@]23C)ccc1O (some centres undefined) | inactive
2 | C=C(C)C1CCC(C)[C@@]23CC=C(C)[C@]2(C1)Oc1cc2c(c(C)c1O3)C(=O)C=C1[C@@]2(C)CC[C@@]2(C)C3C[C@@H](C)C(=O)C[C@]3(C)CC[C@]12C (some centres undefined) | inactive
3 | COC(=O)[C@]1(C)CC[C@](C)(CC[C@]2(C)C(/C=C\c3ccc4c(c3C)O[C@]3(O)C(=O)C=C5C(=CC=C6[C@@]5(C)CC[C@@]5(C)C7C[C@@H](C)C(=O)C[C@]7(C)CC[C@]65C)[C@]3(C)O4)[C@@H](C)CC[C@@H]2C)CC1 (some centres undefined) | inactive
4 | C=C(C)C1CCC(C)[C@@]23CC=C(C)[C@]2(C1)Oc1c(cc2c(c1C)C=CC1[C@@]2(C)CC[C@@]2(C)C4C[C@@H](C)C(=O)C[C@]4(C)CC[C@]12C)O3 (some centres undefined) | inactive
